{
  "source": "patent US4800161A",
  "about": "(priority 1984, dated 1989)",
  "key": {"[1]": {"molecular_target": "aldose-1-epimerase (mutarotase, EC 5.1.3.3) from Acinetobacter calcoaceticus (Acinetobacter calcoaceticus, UniProt P05149)", "sequence (P05149 21-381)": "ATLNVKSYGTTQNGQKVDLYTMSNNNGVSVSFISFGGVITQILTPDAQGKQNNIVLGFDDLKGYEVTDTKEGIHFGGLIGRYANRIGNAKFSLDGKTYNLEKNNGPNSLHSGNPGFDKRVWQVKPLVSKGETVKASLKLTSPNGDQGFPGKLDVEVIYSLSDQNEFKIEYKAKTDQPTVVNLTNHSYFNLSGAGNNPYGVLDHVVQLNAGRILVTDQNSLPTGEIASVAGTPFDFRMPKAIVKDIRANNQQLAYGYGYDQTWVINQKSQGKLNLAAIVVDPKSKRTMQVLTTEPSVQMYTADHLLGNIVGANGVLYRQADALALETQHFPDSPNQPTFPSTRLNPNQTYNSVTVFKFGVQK", "protocol": "Principle: [drawing 1] Mutarotase, glucose-dehydrogenase and NAD are caused to react with a freshly prepared solution of α-glucose, and the NADH2 is determined by measuring the extinction at 366 nm. The measurement of the acceleration of the formation of NADH2 by mutarotase (compared with a blank without mutarotase) allows the mutarotase activity in the solution used to be calculated.\nAs soon as the extinction is constant, the start is made with 0.10 ml of solution 4 in each case.\nA fresh glucose solution is prepared for each measurement. It is absolutely necessary to adhere to the following procedure in order to allow for the existing mutarotation: a 150 ml beaker is filled with 100 ml of distilled water and the temperature is adjusted to 20° C. The beaker is evenly stirred, 30 mg of α-glucose are added, the stopwatch is started and the time is marked on the recorder chart. Mixing takes place for 30 seconds. Within the next 15 seconds, the glucose solution is pipetted into the cell, the cell content is thoroughly mixed and, after the expiration of these 15 seconds, the increase in extinction is recorded. The measurment is taken at 366 nm, layer thickness 1 cm, cell temperature 25° C.\nFor evaluation, a tangent is put to the linear part at the origin of the recording curve, and ΔE/minute is read off; subtraction of the blank from the analysis value gives a value of ΔΔE/minute, which is inserted into the following calculation equation:\nEnzyme activity=ΔΔE/minute×4.09 U of mutarotase per ml of […]"}, "[2]": {"system": "mutarotase from Aspergillus niger", "settings": "read-out: Michaelis constant (KM); Biochim. Biophys. Acta 662, 285 (1981); cited from earlier work"}, "[3]": {"molecular_target": "mutarotase from bovine kidneys (Bos taurus, UniProt Q5EA79)", "sequence (Q5EA79 whole entry)": "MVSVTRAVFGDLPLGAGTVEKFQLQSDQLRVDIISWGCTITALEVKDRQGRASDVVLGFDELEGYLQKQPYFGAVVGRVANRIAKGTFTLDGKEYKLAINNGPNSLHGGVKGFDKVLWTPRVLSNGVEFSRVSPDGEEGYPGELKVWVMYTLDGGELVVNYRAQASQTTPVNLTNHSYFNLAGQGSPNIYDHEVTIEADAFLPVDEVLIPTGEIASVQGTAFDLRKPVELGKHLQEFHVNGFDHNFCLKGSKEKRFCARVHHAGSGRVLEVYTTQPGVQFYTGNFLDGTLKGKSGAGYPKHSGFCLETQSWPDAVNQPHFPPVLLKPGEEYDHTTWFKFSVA", "settings": "read-out: Michaelis constant (KM); glucose determination context"}},
  "data": [
    {"substance": "galactose", "values": [
      {"measurement": "Michaelis constant for galactose compared with glucose", "setting": "[1]", "result": "same Michaelis constant"},
      {"measurement": "Michaelis constant for galactose relative to that of the mutarotase from bovine kidneys", "setting": "[1]", "result": 3, "unit": "times"}
    ]},
    {"substance": "glucose", "values": [
      {"measurement": "Km", "setting": "[2]", "result": 50, "unit": "mM"},
      {"measurement": "Km", "setting": "[3]", "result": "18 to 20", "unit": "mM"},
      {"measurement": "Km", "setting": "[1]; read-out: Michaelis constant (KM) for glucose, mutarotase according to the invention", "result": "6 to 8", "unit": "mM"}
    ]}
  ]
}
